Here are results for eight molecules from ChEMBL document CHEMBL5390260 (J Med Chem, 2023).

Data set [1] addresses Carbonic anhydrase 9 (Homo sapiens, UniProt Q16790).
Data set [2] has as its target Carbonic anhydrase 12 (Homo sapiens, UniProt O43570). Kind of data set: Binding affinity to human recombinant CA12 assessed as inhibition constant incubated for 15 mins by phenol red dye based stopped flow CO2 hydration assay.
Data set [3] deals with MDCK. Kind of data set: Cytotoxicity against MDCK cells assessed as reduction in cell viability at 1 to 100 nM incubated for 72 hrs by WST-1 assay. The class given is toxicity, cell-based, Canis lupus familiaris. As to conditions: dog, 0.1 µM, dose 1-100 nM. In general terms: Tetrazolium dyes change colour on reduction, which living cells bring about.
Data set [4] concerns HCT-116. Put plainly: Antiproliferative activity against human HCT-116 cells assessed as inhibition of cell growth measured after 48 to 72 hrs by MTT assay. It is filed as functional, cell-based.
The test system of data set [5] is SW480. Put plainly: Antiproliferative activity against human SW480 cells assessed as inhibition of cell growth measured after 48 to 72 hrs by XTT assay. It is filed as functional, cell-based.
Data set [6] relates to SW-620. Put plainly: Antiproliferative activity against human SW620 cells assessed as inhibition of cell growth measured after 48 to 72 hrs by XTT assay. The class given is functional, cell-based.
Data set [7] has as its system HCT-116. Kind of data set: Antiproliferative activity against human HCT-116 cells assessed as inhibition of cell growth measured after 48 to 72 hrs in presence of 5-fluorouracil by MTT assay. It is filed as functional, cell-based.
Data set [8] concerns SW480. Kind of data set: Antiproliferative activity against human SW480 cells assessed as inhibition of cell growth measured after 48 to 72 hrs in presence of 5-fluorouracil by XTT assay. It is filed as functional, cell-based.
In data set [9] the test system is SW-620. Kind of data set: Antiproliferative activity against human SW620 cells assessed as inhibition of cell growth measured after 48 to 72 hrs in presence of 5-fluorouracil by XTT assay. The class given is functional, cell-based.
The test system of data set [10] is MCF7. Kind of data set: Antiproliferative activity against human MCF7 cells assessed as inhibition of cell growth measured after 48 hrs by sulforhodamine B assay. It is filed as functional, cell-based. As to conditions: MCF7, 48 h. For orientation: Sulforhodamine B stains cellular protein and so reports cell mass.
The test system of data set [11] is OVCAR-8. Kind of data set: Antiproliferative activity against human OVCAR-8 cells assessed as inhibition of cell growth measured after 48 hrs by sulforhodamine B assay. As to conditions: OVCAR-8, 48 h. The class given is functional, cell-based.
In data set [12] the test system is NCI/ADR-RES. Kind of data set: Antiproliferative activity against human NCI/ADR-RES cells assessed as inhibition of cell growth measured after 48 hrs by sulforhodamine B assay. The class given is functional, cell-based.
Data set [13] has as its system MDA-MB-231. Kind of data set: Antiproliferative activity against human MDA-MB-231 cells assessed as inhibition of cell growth at 0.1 to 30 uM measured after 72 hrs by propidium iodide staining based cytofluorimetric analysis. As to conditions: dose 0.1-30 µM. It is filed as functional.
For data set [14], the system named is BT-549. Kind of data set: Antiproliferative activity against human BT-549 cells assessed as inhibition of cell growth at 0.1 to 30 uM measured after 72 hrs by propidium iodide staining based cytofluorimetric analysis. The class given is functional. As to conditions: dose 0.1-30 µM.
Data set [15] has as its system T-cell. Kind of data set: Induction of apoptosis in human T-lymphocyte assessed as late apoptotic cells at 30 uM measured after 72 hrs by Annexin-V/propidium iodide staining based flow cytometric analysis (reference value: 14%). The class given is toxicity. (Flow cytometry measures light scatter and fluorescence of single cells or particles in a stream.)
Data set [16] concerns T-cell. Put plainly: Induction of apoptosis in human T-lymphocyte assessed as increase in cell death at 30 uM measured after 72 hrs by Annexin-V/propidium iodide staining based flow cytometric analysis relative to control. The class given is toxicity.
The subject of data set [17] is HCT-116. Kind of data set: Induction of apoptosis in human HCT-116 cells assessed as increase in cleaved PARP level upto 30 uM measured after 72 hrs by Western blotting analysis. It is filed as functional, cell-based.
For data set [18], the system named is HCT-116. Put plainly: Induction of apoptosis in human HCT-116 cells assessed as increase in cleaved caspase-3 level upto 30 uM measured after 72 hrs by Western blotting analysis. The class given is functional, cell-based.
In data set [19] the test system is HEK293T. Put plainly: Inhibition of Wnt/beta-catenin signalling pathway in LiCl stimulated HEK293T cells transfected with renilla luciferase and TOPFlash reporter gene incubated for 24 hrs by luminescence based analysis. The class given is cell-based. As to conditions: Homo sapiens, dose <= 30.0 µM.
Data set [20] deals with HEK293T. Put plainly: Inhibition of Wnt/beta-catenin signalling pathway in LiCl stimulated HEK293T cells transfected with renilla luciferase and FOPFlash reporter gene upto 30 uM incubated for 24 hrs by luminescence based analysis. It is filed as cell-based. As to conditions: Homo sapiens.
In data set [21] the test system is HCT-116. Kind of data set: Inhibition of Wnt/beta-catenin signalling pathway in LiCl stimulated human HCT-116 cells assessed as reduction in beta-catenin level upto 30 uM incubated for 24 hrs by Western blotting analysis. The class given is cell-based.
In data set [22] the test system is HCT-116. Kind of data set: Inhibition of Wnt/beta-catenin signalling pathway in LiCl stimulated human HCT-116 cells assessed as reduction in c-MYC level upto 30 uM incubated for 24 hrs by Western blotting analysis. The class given is cell-based.
Data set [23] concerns HCT-116. Put plainly: Inhibition of Wnt/beta-catenin signalling pathway in LiCl stimulated human HCT-116 cells assessed as reduction in […] gene expression upto 30 uM incubated for 24 hrs by RT-PCR analysis. It is filed as cell-based.
Data set [24] deals with HCT-116. Kind of data set: Inhibition of Wnt/beta-catenin signalling pathway in LiCl stimulated human HCT-116 cells assessed as reduction in Sal4 gene expression upto 30 uM incubated for 24 hrs by RT-PCR analysis. It is filed as cell-based.
In data set [25] the test system is HT-29. Put plainly: Cytotoxicity against doxorubicin-sensitive human HT-29 cell assessed as reduction in cell viability at 1 to 100 nM incubated for 72 hrs by WST-1 assay. The class given is functional. As to conditions: dose 1-100 nM.
The subject of data set [26] is HT-29. Kind of data set: Cytotoxicity against doxorubicin-resistant human HT-29 cell assessed as reduction in cell viability at 1 to 100 nM incubated for 72 hrs by WST-1 assay. The class given is functional. The settings on record: dose 1-100 nM.
Data set [27] in a line: Cytotoxicity against MDCK-P-gp cells assessed as reduction in cell viability at 1 to 100 nM incubated for 72 hrs by WST-1 assay. The class given is toxicity, cell-based, Canis lupus familiaris. As to conditions: dog, 0.1 µM, dose 1-100 nM.
Data set [28] has as its target T1, ATP-dependent translocase ABCB1 (Homo sapiens, UniProt P08183). Put plainly: Inhibition of P-gp in doxorubicin-resistant human HT-29 cell assessed as increase in intracellular doxorubicin accumulation incubated for 72 hrs in presence of doxorubicin by spectrofluorimetric analysis. The class given is cell-based. As to conditions: 0.1 µM, dose 100 nM.
The target of data set [29] is T1, ATP-dependent translocase ABCB1. Kind of data set: Inhibition of P-gp in human HT-29 cells assessed as effect on intracellular doxorubicin accumulation at 1 to 100 nM incubated for 72 hrs in presence of doxorubicin by spectrofluorimetric analysis. It is filed as cell-based. The settings on record: dose 1-100 nM.
Data set [30] relates to MDCK-P-gp. Kind of data set: Inhibition of P-gp in MDCK-P-gp cells assessed as effect on intracellular doxorubicin accumulation at 1 to 100 nM incubated for 72 hrs in presence of doxorubicin by […] assay. It is filed as cell-based. The settings on record: Canis lupus familiaris, dose 1-100 nM.
Data set [31] addresses T1, ATP-dependent translocase ABCB1. Kind of data set: Inhibition of P-gp ATPase activity in doxorubicin-resistant human HT-29 cell assessed as reduction in rate of ATP hydrolysis at 10 nM incubated for 3 hrs by spectrophotometric analysis. The class given is cell-based. The settings on record: 0.01 µM.
In data set [32] the test system is MDCK-P-gp. Put plainly: Inhibition of P-gp ATPase activity in MDCK-P-gp cells assessed as reduction in rate of ATP hydrolysis at 10 nM incubated for 3 hrs by spectrophotometric analysis. The settings on record: Canis lupus familiaris. The class given is cell-based.
Data set [33] relates to HT-29. Kind of data set: Cytotoxicity against doxorubicin-sensitive human HT-29 cell assessed as reduction in cell viability at 1 to 100 nM incubated for 72 hrs in presence of doxorubicin by WST-1 assay. The class given is functional, cell-based. As to conditions: dose 1-100 nM.
Data set [34] relates to HT-29. Put plainly: Cytotoxicity against doxorubicin-resistant human HT-29 cell assessed as reduction in cell viability incubated for 72 hrs in presence of doxorubicin by WST-1 assay. It is filed as functional, cell-based. As to conditions: dose 1-100 nM.
In data set [35] the test system is MDCK. Kind of data set: Cytotoxicity against MDCK cells assessed as reduction in cell viability at 1 to 100 nM incubated for 72 hrs in presence of doxorubicin by WST-1 assay. The class given is toxicity, cell-based, Canis lupus familiaris. The settings on record: dog, 0.1 µM, dose 1-100 nM.
Data set [36] is described as follows: Cytotoxicity against MDCK-P-gp cells assessed as reduction in cell viability incubated for 72 hrs in presence of doxorubicin by WST-1 assay. The class given is toxicity, cell-based, Canis lupus familiaris. The settings on record: dog, dose 1-100 nM.
Data set [37] deals with HT-29. Kind of data set: Cytotoxicity against doxorubicin-resistant human HT-29 cell assessed as reduction in cell viability […] incubated for 72 hrs in presence of doxorubicin by WST-1 assay. It is filed as functional, cell-based.
The target in data set [38] is Carbonic anhydrase 2 (Homo sapiens, UniProt P00918). Kind of data set: Binding affinity to human recombinant CA2 assessed as inhibition constant incubated for 15 mins by phenol red dye based stopped flow CO2 hydration assay.
Data set [39] addresses Tubulin (Homo sapiens) (UniProt P68371+Q9H4B7+P0DPH7+P68366+Q13509+Q71U36+P04350+Q3ZCM7+P07437+P68363+Q9BQE3+Q6PEY2+Q13885+Q9BVA1+Q9BUF5). Put plainly: Inhibition of tubulin polymerization (unknown origin) at 20 uM preincubated for 15 mins followed by GTP addition by spectrophotometric analysis. The class given is protein-complex assay.

pEC50, pIC50, pKi: −log10 of the molar value. Active and inactive are the calls of the source. No cut-off for these calls is given here.

Sequence of Carbonic anhydrase 12 (O43570 whole entry): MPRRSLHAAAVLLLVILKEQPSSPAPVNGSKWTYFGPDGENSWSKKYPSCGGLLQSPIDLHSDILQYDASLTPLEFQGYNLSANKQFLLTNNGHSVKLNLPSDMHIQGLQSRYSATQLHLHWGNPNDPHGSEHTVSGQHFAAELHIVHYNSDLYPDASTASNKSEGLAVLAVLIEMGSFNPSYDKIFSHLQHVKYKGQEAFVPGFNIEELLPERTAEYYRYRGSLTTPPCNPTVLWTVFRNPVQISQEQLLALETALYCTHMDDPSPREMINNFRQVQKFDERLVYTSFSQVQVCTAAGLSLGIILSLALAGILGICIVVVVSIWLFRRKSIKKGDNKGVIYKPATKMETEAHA
T1 sequence (P08183 whole entry): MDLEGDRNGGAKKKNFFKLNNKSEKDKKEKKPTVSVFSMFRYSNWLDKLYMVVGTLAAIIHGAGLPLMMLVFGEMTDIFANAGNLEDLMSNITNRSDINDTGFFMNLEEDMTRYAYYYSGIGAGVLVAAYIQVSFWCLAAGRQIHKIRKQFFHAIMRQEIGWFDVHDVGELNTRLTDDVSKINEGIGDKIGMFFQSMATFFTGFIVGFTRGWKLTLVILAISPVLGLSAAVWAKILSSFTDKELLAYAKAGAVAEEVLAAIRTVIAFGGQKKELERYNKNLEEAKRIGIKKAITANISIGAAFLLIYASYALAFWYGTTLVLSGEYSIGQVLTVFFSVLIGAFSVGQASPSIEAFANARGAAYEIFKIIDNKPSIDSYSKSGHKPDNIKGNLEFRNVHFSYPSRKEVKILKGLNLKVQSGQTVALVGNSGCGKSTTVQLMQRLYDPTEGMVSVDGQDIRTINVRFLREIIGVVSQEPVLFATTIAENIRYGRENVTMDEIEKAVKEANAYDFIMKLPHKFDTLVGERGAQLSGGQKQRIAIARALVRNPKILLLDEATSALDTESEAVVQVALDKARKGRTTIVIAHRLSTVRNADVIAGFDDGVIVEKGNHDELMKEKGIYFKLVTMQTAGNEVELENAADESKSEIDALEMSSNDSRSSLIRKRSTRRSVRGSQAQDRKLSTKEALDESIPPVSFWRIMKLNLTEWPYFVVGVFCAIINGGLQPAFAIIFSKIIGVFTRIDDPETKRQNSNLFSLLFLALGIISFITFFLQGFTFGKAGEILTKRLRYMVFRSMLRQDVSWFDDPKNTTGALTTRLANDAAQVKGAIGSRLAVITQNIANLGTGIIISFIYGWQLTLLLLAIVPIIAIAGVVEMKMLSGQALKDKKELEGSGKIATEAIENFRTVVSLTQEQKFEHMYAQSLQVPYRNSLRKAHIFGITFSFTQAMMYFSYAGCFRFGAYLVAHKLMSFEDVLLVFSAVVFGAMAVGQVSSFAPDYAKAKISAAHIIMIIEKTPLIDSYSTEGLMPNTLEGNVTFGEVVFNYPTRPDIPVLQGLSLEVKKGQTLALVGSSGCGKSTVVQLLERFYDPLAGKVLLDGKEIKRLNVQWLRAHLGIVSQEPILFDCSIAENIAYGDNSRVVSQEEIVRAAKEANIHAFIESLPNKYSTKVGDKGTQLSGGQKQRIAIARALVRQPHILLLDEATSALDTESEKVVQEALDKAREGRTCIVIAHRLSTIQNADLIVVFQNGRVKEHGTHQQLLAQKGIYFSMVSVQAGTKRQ

For the molecule `NS(=O)(=O)c1ccc(-n2cc(C(=O)c3ccccc3)c3ccccc32)cc1`, the pKi is 7.50 in data set [1] and 7.28 in data set [2].

In the case of `COc1cc(C(=O)c2cn(-c3ccc(S(N)(=O)=O)cc3)cc2-c2ccccc2)cc(OC)c1OC`, the Activity in [3] is over 75%; in [15], 20%; in [16], 6%; in data set [25] it was over 75%; in [26] it was over 75%; in data set [27], over 75%. Further, the Activity result in [34] was “Dose-Dependent Effect”; in data set [35], “Non-Toxic”; in data set [36], “Dose-Dependent Effect”. Besides, the pIC50 in data set [4] was 5.06; in data set [5], 4.75; in [6], 4.62; in data set [7], 4.77; in [8], 4.37; in [9], 4.43. Also, the pIC50 is 5.72 in data set [10], 5.72 in [11] and 5.68 in [12]. For the same molecule, the outcome in data set [13], in data set [14], in data set [17], in data set [18], in data set [33] and in data set [37] was Active. In addition, the inhibition result in data set [19] was “Dose-Dependent Effect”. The inhibition result in data set [20] and in [30] was “inactive” each time. The inhibition entry in [21], in [22], in data set [23], in [24] and in data set [32] was “Active” in each case. Moreover, the “inhibition (INH)” value is “Dose-Dependent Effect” in data set [28], “Not Active” in [29] and “Active” in [31].

With `COc1cccc2c1C(=O)c1c(O)c3c(c(O)c1C2=O)C[C@@](O)(C(=O)CO)C[C@@H]3O[C@H]1C[C@H](N)[C@H](O)[C@H](C)O1` [DOXORUBICIN], the figures for the Activity result in data set [3] and in data set [27] were “Toxic” and “Non-Toxic”, respectively. Further, in data set [25], the outcome was Active. For the same molecule, the outcome in [26] was inactive.

Consider `COc1cc(C(=O)c2ccn(-c3ccc(S(N)(=O)=O)cc3)c2)cc(OC)c1OC`, for which the pKi was 7.99 in data set [38], 7.35 in data set [1] and 7.94 in [2]. The inhibition entry in [39] was “inactive”. The pIC50 was 5.41 in [10], 5.72 in [11] and 5.66 in [12].

For `Nc1ccc(C(=O)c2ccc(-c3ccc(S(N)(=O)=O)cc3)cc2)cc1`, in data set [12], the pEC50 is 5.68.

In the case of `NS(=O)(=O)c1ccc(-n2ccc(C(=O)c3ccccc3)c2)cc1`, the pKi in data set [1] is 7.18; in data set [2] it was 7.33.

For the molecule `COc1cc(C(=O)c2cn(-c3ccc(S(N)(=O)=O)cc3)c3ccccc23)cc(OC)c1OC`, the pIC50 in data set [7] was 4.85; in data set [8], 4.30; in [9], 4.59.

As to `NS(=O)(=O)c1ccc(-n2cc(C(=O)c3ccccc3)c(-c3ccccc3)c2)cc1`, the pKi is 7.41 in data set [1] and 7.23 in data set [2].

For orientation: pKi means the negative decadic logarithm of the Ki, by convention in mol/L. By pIC50 is commonly meant −log10 of the IC50, conventionally taken in molar units. By pEC50 is commonly meant the EC50 on a negative log10 scale, so that one unit is a factor of ten.
